Measurements as given in US20260085292A1, “MINIMAL ESSENTIAL MEDIA FOR THE CULTURE OF HUMAN INDUCED PLURIPOTENT STEM CELLS” (Northwestern University, priority 2022, published 2026).
Where a name gives a salt, the structure may show the parent alone. Read-outs that look alike come from different tables or passages of the source. Where a SMILES comes first, the peptide text is derived from it.

How the values were obtained:
[1] = system: hiPSC lines (19c3 and 23c1); experiment: hiPSC growth titration assay: 1-5 passages in 12-well plates, then resazurin viability assay; conditions: for concentration required to maintain similar levels of proliferation: three-passage assay
Excerpt: Each commercial medium was normalized to the DMEM/F12 levels of L-glutamine, D-glucose, sodium pyruvate, sodium bicarbonate, pH, and osmolarity (FIG. 1B). To assess the effect of basal medium on hiPSC growth, an assay was developed consisting of plating cells in 12-well plates, and growing cells for 4 days with daily medium changes, before passaging at a 1:20 ratio. This was completed for 1-5 passages followed by a cost-effective resazurin viability assay (FIG. 1C). […] This was chosen to minimize the effect of variance caused by repeated manual passaging and replating. At least two hiPSC lines were used in parallel throughout the titration process. Identified adjusted concentrations of each group, such as amino acids, was incorporated prior to beginning the next group, such as vitamins, to bring subsequent titrations as close to final formulation as possible. Once the initial full cycle of titration of all components was complete, a second full cycle of was performed to confirm the results in the final formulation. We also completed identical experiments without daily medium change to identify components and concentrations that support this protocol (FIGS. 3, 5, and 8), and to allow for development of a simplified hiPSC culture strategy.
(§1) Human induced pluripotent cell culture: BMEM consists of BMEM basal medium and BMEM supplement. […] These are added to ultrapure water and filter sterilized. BMEM supplement consists of 5 mg/mL E. coli-derived recombinant human insulin (Gibco), […] L-ascorbic acid 2-phosphate trisodium salt (AA2P, Wako), 5 mg/mL Oryza sat-iva-derived recombinant human transferrin (Optiferrin, InVitria), 20 ng/mL sodium selenite (Sigma), 40 ng/mL recombinant human FGF2-G3 (made in-house), 0.1 ng/mL recombinant human TGFb3 (E. coli-derived, Qkine), 0.1 ng/mL recombinant human NRG1 (E. coli-derived, Shenodoah Biotechnology). Cells were routinely maintained in this medium on 1:800 diluted growth factor reduced Matrigel (Corning) diluted in a BMEM basal at 2 mL per well of a 6-well plate or equivalent. Matrigel-coated plates were kept in CO2 incubators at 37° C. for up to 1 month. BMEM was supplemented with […] thiazovivin (LC Labs), hereafter referred to as BMEM-T, for the first 24 h after passage. For standard culture, cells were passaged at a ratio of 1:20 every 4 days using 0.5 mM EDTA (Invitrogen) diluted in DPBS^−/− (without Ca^2+ and Mg^2+, Corning), after achieving ˜70%-80% confluence. Cell lines were used between passages 20 and 100. Throughout, pH was adjusted immediately after making the medium at room temperature and atmospheric oxygen and carbon dioxide levels but before filter sterilization. pH was adjusted with 12 N HCl or 1 N NaOH (both from Fisher) and measured using a SevenCompact pH meter (MettlerToledo). Osmolarity was measured using an osmometer (Advanced Instruments).
Resazurin assay: Resazurin sodium salt (B21187.06, Thermo) was diluted to 5 mg/mL in sterile Milli-Q ultrapure water and 600 μL aliquots were made and stored at −20° C. One aliquot was added to 14.4 mL of water to generate a 10× stock. Stock was diluted in BMEM to 1×, and 1 mL was added to each well of a 12-well plate and incubated at 37° C. for 2.5 h. Plates were read on a Varioskan Lux (Thermo) in fluorescent mode using top read and an excitation wavelength of 560 nm and an emission wavelength of 590 nm.

[2] = 110 mM NaCl
Protocol: as §1, with “For standard culture, cells were passaged at a ratio of 1:20 every 4 days using 0.5 mM EDTA (Invitrogen) diluted in DPBS^−/− (without Ca^2+ and Mg^2+, Corning), after achieving ˜70%-80% confluence. Cell lines were used between passages 20 and 100.” left out

[3] = daily medium change, multi-passage assay, normalized to DMEM/F12

O=C(O)CCCC[C@@H]1CCSS1 (racemic) [lipoic acid, Lipoic acid]
requirement of the component for hiPSC growth [1, 3]: superfluous

[Ca+2].[Cl-].[Cl-] [CaCl2, Calcium chloride (CaCl2)]
suitable concentration compared with that in DMEM/F12 ([1]; titration, daily medium change): could be reduced | effect of low concentrations on hiPSCs ([1]; two-passage titration): reduced the adhesion of hiPSCs to the plates

CC(C)(CO)[C@@H](O)C(=O)NCCC(=O)[O-].CC(C)(CO)[C@@H](O)C(=O)NCCC(=O)[O-].[Ca+2] [D-pantothenic acid, D-Pantothenic acid hemicalcium salt (B5)]
suitable concentration compared with that in DMEM/F12 ([1]; titration, daily medium change): higher concentrations

O=S(=O)(O)CCN1CCN(CCO)CC1 [HEPES]
requirement of the component for hiPSC growth [1, 3]: superfluous | requirement of the component for hiPSC growth ([1]; no medium change): superfluous

[Cl-].[K+] [KCl, Potassium chloride (KCl)]
suitable concentration compared with that in DMEM/F12 ([1]; titration, daily medium change): could be reduced

C[C@H](N)C(=O)N[C@@H](CCC(N)=O)C(=O)O [L-alanyl-L-glutamine] (H-Ala-Gln-OH)
hiPSC growth rate compared with glutamine at the suitable concentrations ([1]; 2 mM vs 1 mM glutamine, also with no medium change): no difference | concentration required to maintain similar levels of proliferation [1]: 2 mM

O=S(=O)([O-])[O-].[Mg+2] [MgSO4, Magnesium sulfate (MgSO4)]
suitable concentration compared with that in DMEM/F12 ([1]; titration, daily medium change): enhanced growth

[Cl-].[Na+] [NaCl, Sodium chloride (NaCl)]
concentration suitable for hiPSC growth ([1]; NaCl titration in the presence of sodium bicarbonate, two-passage assay): 110 mM | osmolarity produced [2]: 295 mOsm/L

CC(=O)C(=O)[O-].[Na+] [Sodium pyruvate]
requirement of the component for hiPSC growth [1, 3]: essential | suitable concentration compared with that in DMEM/F12 ([1]; titration, daily medium change): slightly higher concentration

O.O.O.O.O.O.O.O=S(=O)([O-])[O-].[Zn+2] [Zinc, Zinc sulfate heptahydrate (ZnSO4•7H2O)]
requirement of the component for hiPSC growth [1, 3]: not shown to be essential | improvement of hiPSC growth ([1]; two-passage assay): approximately 10%

O=C(O)CCCC[C@@H]1SC[C@@H]2NC(=O)N[C@@H]21 [biotin, Biotin (B7)]
suitable concentration compared with that in DMEM/F12 ([1]; titration, daily medium change): sufficient at concentrations lower than those in DMEM/F12

O.O.O.O.O.O=S(=O)([O-])[O-].[Cu+2] [copper, Copper(II) sulfate pentahydrate (CuSO4•5H2O)]
concentration at which toxic to hiPSCs [1]: > 100 µM | requirement of the component for hiPSC growth [1, 3]: No advantage

N[C@@H](CS)C(=O)O [cysteine, L-Cysteine HCl•H2O]
requirement of the component for hiPSC growth [1, 3]: can replace the cystine and cysteine combination

Nc1nc(=O)c2nc(CNc3ccc(C(=O)N[C@@H](CCC(=O)O)C(=O)O)cc3)cnc2[nH]1 [folic acid, Folic acid (B9)]
suitable concentration compared with that in DMEM/F12 ([1]; titration, daily medium change): sufficient at concentrations lower than those in DMEM/F12

NC(=O)CC[C@H](N)C(=O)O [glutamine, L-Glutamine]
concentration required to maintain similar levels of proliferation [1]: 1 mM | suitable concentration compared with that in DMEM/F12 ([1]; titration, daily medium change): suitable at lower concentrations

NCC(=O)O [glycine, Glycine]
requirement of the component for hiPSC growth ([1]; no medium change): superfluous

N[C@@H](Cc1c[nH]cn1)C(=O)O [histidine, L-Histidine HCl•H2O]
suitable concentration compared with that in DMEM/F12 ([1]; titration, daily medium change): approximately suitable

O=c1[nH]cnc2nc[nH]c12 [hypoxanthine, Hypoxanthine]
requirement of the component for hiPSC growth [1, 3]: superfluous

O.O.O.O.O.O.O.O.O.O=[N+]([O-])[O-].O=[N+]([O-])[O-].O=[N+]([O-])[O-].[Fe+3] [iron nitrate, Iron(III) nitrate nonahydrate (Fe(NO3)3•9H2O)]
toxicity to hiPSCs ([1]; concentration titration, two-passage assay): toxic at high concentrations

O.O.O.O.O.O.O.O=S(=O)([O-])[O-].[Fe+2] [iron sulfate, Iron(II) sulfate heptahydrate (FeSO4•7H2O)]
toxicity to hiPSCs [1]: toxic at high concentrations

CC(C)C[C@H](N)C(=O)O [leucine, L-Leucine]
suitable concentration compared with that in DMEM/F12 ([1]; titration, daily medium change): approximately suitable

CCCCC/C=C\C/C=C\CCCCCCCC(=O)O [linoleic acid, Linoleic acid]
requirement of the component for hiPSC growth [1, 3]: superfluous

Cl.NCCCC[C@H](N)C(=O)O [lysine, L-Lysine HCl]
suitable concentration compared with that in DMEM/F12 ([1]; titration, daily medium change): approximately suitable

CSCC[C@H](N)C(=O)O [methionine, L-Methionine]
suitable concentration compared with that in DMEM/F12 ([1]; titration, daily medium change): approximately suitable

O[C@H]1[C@H](O)[C@@H](O)[C@H](O)[C@@H](O)[C@H]1O [myoinositol, myo-Inositol]
suitable concentration compared with that in DMEM/F12 ([1]; titration, daily medium change): higher concentrations

NC(=O)c1cccnc1 [nicotinamide, Nicotinamide (B3)]
suitable concentration compared with that in DMEM/F12 ([1]; titration, daily medium change): sufficient at concentrations lower than those in DMEM/F12

Cl.Cl.NCCCCN [putrescine, Putrescine dihydrochloride]
requirement of the component for hiPSC growth [1, 3]: superfluous

Cc1ncc(CO)c(CO)c1O [pyridoxine, Pyridoxine hydrochloride (B6)]
suitable concentration compared with that in DMEM/F12 ([1]; titration, daily medium change): sufficient at concentrations lower than those in DMEM/F12

Cc1cc2nc3c(=O)[nH]c(=O)nc-3n(C[C@H](O)[C@H](O)[C@H](O)CO)c2cc1C [riboflavin, Riboflavin (B2)]
suitable concentration compared with that in DMEM/F12 ([1]; titration, daily medium change): sufficient at concentrations lower than those in DMEM/F12

O=C([O-])O.[Na+] [sodium bicarbonate, Sodium bicarbonate (NaHCO3)]
concentration most suitable for hiPSC growth ([1]; pH normalized to 7.1): 22.5 mM

O.O=P([O-])(O)O.[Na+] [sodium phosphate monobasic, Sodium phosphate monobasic monohydrate (NaH2PO4•H2O)]
requirement of the component for hiPSC growth [1, 3]: superfluous | concentration at which essential ([1]; no medium change assay): around 2 mM

Cc1ncc(C[n+]2csc(CCO)c2C)c(N)n1 [thiamine, Thiamine hydrochloride (B1)]
requirement of the component for hiPSC growth [1, 3]: superfluous | requirement of the component for hiPSC growth ([1]; normoxic conditions (21% O2)): required

C[C@@H](O)[C@H](N)C(=O)O [threonine, L-Threonine]
suitable concentration compared with that in DMEM/F12 ([1]; titration, daily medium change): approximately suitable

Cc1cn([C@H]2C[C@H](O)[C@@H](CO)O2)c(=O)[nH]c1=O [thymidine, Thymidine]
requirement of the component for hiPSC growth [1, 3]: superfluous

N[C@@H](Cc1c[nH]c2ccccc12)C(=O)O [tryptophan, L-Tryptophan]
suitable concentration relative to that in DMEM/F12 ([1]; titration, two-passage assay): ~4 fold

N[C@@H](Cc1ccc(O)cc1)C(=O)O [tyrosine, L-Tyrosine disodium salt hydrate]
suitable concentration compared with that in DMEM/F12 ([1]; titration, daily medium change): approximately suitable

Iron
requirement of the component for hiPSC growth [1, 3]: essential
